The results in this text go back to article PMC6057649, “Development of NanoLuc-PEST expressing Leishmania mexicana as a new drug discovery tool for axenic- and intramacrophage-based assays” (PLoS Neglected Tropical Diseases, 2018).

Each structure is given as a SMILES string. Like-named read-outs stand apart in the source and are kept apart here.

This assay deals with NanoLuc-PEST expressing L. mexicana axenic amastigotes. Description: microbe, parasite or virus in culture. The class given is cell-based. Particulars: for EC50: hit compounds from the axenic amastigote screen, S3 Table, read-out: EC50, Axenic Amastigotes; for viability at 2 µM / viability at 10 µM: read-out: Relative Bioluminescence (%).
Setting [1] is: 2 µM compound, 72 hours, relative to DMSO only control, n = 4.
Where [2] appears, read: 10 µM compound, 72 hours, relative to DMSO only control, n = 4.
[3] abbreviates: Leishmania mexicana, 2 µM compound, 72 hours, relative to DMSO only control, n = 4.
Where [4] appears, read: Leishmania mexicana, 10 µM compound, 72 hours, relative to DMSO only control, n = 4.

Take `c1ccc(-c2nc(NC3CCCCC3)cc(C3CC3)n2)nc1` [MMV021013]: the “Relative Bioluminescence (%)” value was 11.73% under setting [1] and 1.47% under setting [2].
By EC50 is commonly meant the concentration giving half of the maximal effect. Consider `CCOC(=O)c1c(NC(=O)c2c(F)c(F)c(F)c(F)c2F)sc(C(N)=O)c1C` [MMV153413], for which the EC50 is 520 nM. Further, the “Relative Bioluminescence (%)” value under setting [1] was 4.50%. Further, the “Relative Bioluminescence (%)” value under setting [2] amounted to 0.97%.
As to `Oc1c(I)cc(I)c2cccnc12` [MMV002817, Iodoquinol, reference compound], under setting [3], the viability at 2 µM is -1.49%. The viability at 10 µM under setting [4] was -1.46%. Further, under “Leishmania mexicana”, the EC50 was 220 nM.
Turning to `O=C1Nc2ccc(Br)cc2C12NCCc1c2[nH]c2ccccc12` (stereo not drawn) [MMV006239], the “Relative Bioluminescence (%)” value reads like this: under setting [1], 107.64%; under setting [2], 108.03%.
For the compound `CC[C@@H](CO)NCCN[C@@H](CC)CO` [MMV687801, Ethambutol, reference compound], the viability at 2 µM under setting [3] was determined as 98.6%. The viability at 10 µM under setting [4] worked out at 127%.
With `O=C(NCCN1CCCC1)c1cc(NCCN2CCOCC2)nc2ccc(Cl)cc12` [MMV634140], the “Relative Bioluminescence (%)” value was 112.61% under setting [1] and 73.96% under setting [2].
For the compound `Cc1cc(Cl)ccc1NC(=O)CCc1ccc(S(=O)(=O)NCC(C)C)cc1` [MMV161996], the “Relative Bioluminescence (%)” value is, setting by setting: under setting [1], 75.91%; under setting [2], 98.90%.
Consider `Cc1ccc2nc(C)c(-c3ccn(Cc4ccccc4)n3)n2c1` [MMV688939], for which the “Relative Bioluminescence (%)” value came out at 75.51% under setting [1] and 51.85% under setting [2].
Regarding `CCOc1ccc(-c2nc(NC(=O)CS(=O)(=O)c3ccccc3)sc2C)cc1` [MMV007638], the “Relative Bioluminescence (%)” value reads like this: under setting [1], 57.66%; under setting [2], 52.58%.
With `COc1ccccc1OCCCCn1c(C2CC2)nc2ccccc21` [MMV676474], the “Relative Bioluminescence (%)” value under setting [1] amounted to 84.28% and the “Relative Bioluminescence (%)” value under setting [2] was 88.48%.
For `c1cc(C2=NCCN2)cc(-c2cc(-c3ccc(C4=NCCN4)cc3)no2)c1` [MMV688361], the “Relative Bioluminescence (%)” value by setting is: under setting [1], 96.04%; under setting [2], 78.94%.
For the compound `CCCn1nnc(NC(=O)COc2ccc(C3CCCCC3)cc2)n1` [MMV676597], the “Relative Bioluminescence (%)” value is 85.91% under setting [1] and 73.07% under setting [2].
For the compound `OCCc1ccc(Nc2nccc(-c3nnc4ccccn34)n2)cc1` [MMV028694], the “Relative Bioluminescence (%)” value reads like this: under setting [1], 24.99%; under setting [2], 3.77%.
With `c1ccc2c(c1)CN(CC1CC1)CC1(CCN(Cc3c[nH]c4cnccc34)CC1)O2` [MMV023183], the “Relative Bioluminescence (%)” value reads like this: under setting [1], 103.26%; under setting [2], 84.53%.
Regarding `CCc1nc2ccccc2n1CC(O)COc1cc(C)ccc1Cl` (stereo not drawn) [MMV676449], the “Relative Bioluminescence (%)” value by setting is: under setting [1], 92.26%; under setting [2], 88.05%.
The matching figures for `Cc1cc2ccccc2n1CC(=O)N1CC(C(=O)N2CCCCC2)Oc2ccccc21` (stereo not drawn) [MMV020520]: 108.71% and 127.42%.
Turning to `COc1ccc(C2(C(=O)Nc3ccc(Br)cc3)CCCC2)cc1` [MMV200748], the “Relative Bioluminescence (%)” value reads like this: under setting [1], 64.99%; under setting [2], 61.91%.
In the case of `CNc1snc(C)c1C(=O)NCCOc1ccc(OC)cc1` [MMV688554], the “Relative Bioluminescence (%)” value runs as follows: under setting [1], 117.68%; under setting [2], 66.57%.
`CC(=O)N1CCc2cc3nc(C)cc(C)c3cc21` [MMV054312]: the “Relative Bioluminescence (%)” value runs as follows: under setting [1], 120.77%; under setting [2], 116.16%.
In the case of `O=C(c1cc2ccccc2o1)N1CCN(Cc2ccc3c(c2)OCO3)CC1` [MMV676520], the “Relative Bioluminescence (%)” value by setting is: under setting [1], 56.86%; under setting [2], 68.82%.
Regarding `COc1cccc(-n2nnnc2S(C)(=O)=O)c1` [MMV272144], the EC50 amounted to 640 nM. The “Relative Bioluminescence (%)” value under setting [1] was 2.64%. Moreover, the “Relative Bioluminescence (%)” value under setting [2] worked out at 0.19%.
As for `FC(F)(F)c1cccc(-c2nc3c(NCc4ccncc4)nccc3[nH]2)c1` [MMV032967], the “Relative Bioluminescence (%)” value is, setting by setting: under setting [1], 79.58%; under setting [2], 75.35%.
Turning to `COc1ccc(C2=NN(C3CCCCCC3)C(=O)C2(C)C)cc1OCCCCOc1ccc(-c2nn[nH]n2)cc1` [MMV690028], the “Relative Bioluminescence (%)” value by setting is: under setting [1], 55.46%; under setting [2], 1.50%.
For the compound `CN1CCN(CCCOc2ncc(Nc3ncc(-c4ccc(C(F)(F)F)c(F)c4)nc3C(N)=O)cn2)CC1` [MMV687812], the “Relative Bioluminescence (%)” value reads like this: under setting [1], 66.08%; under setting [2], 77.79%.
On to `COc1cccn2c(C(=O)N3CCCCC3)c(C(F)(F)F)nc12` [MMV1110498], for which the “Relative Bioluminescence (%)” value reads like this: under setting [1], 66.34%; under setting [2], 77.35%.
Consider `OCc1ccc(-c2cncc(Nc3cccc(Cl)c3)c2)cc1` [MMV026468], for which the “Relative Bioluminescence (%)” value is on record as 116.14% under setting [1] and 104.46% under setting [2].
On to `Cc1ccc2[nH]c3c(NCCN(C)C)ncnc3c2c1` [MMV006372], for which the “Relative Bioluminescence (%)” value runs as follows: under setting [1], 63.77%; under setting [2], 81.31%.
On to `Nc1ncnc2c1c(Cc1cccc3ccccc13)nn2CC1CCNCC1` [MMV676182], for which the “Relative Bioluminescence (%)” value runs as follows: under setting [1], 78.18%; under setting [2], 53.64%.
For `O=C(Nc1cnc2ccccc2c1)c1cccc(-n2cnnn2)c1` [MMV084864], the “Relative Bioluminescence (%)” value under setting [1] amounted to 74.64% and the “Relative Bioluminescence (%)” value under setting [2] was determined as 55.81%.
For the compound `COc1cccc(NC(=O)c2c(NC(=O)c3cccnc3)sc3c2CCC3)c1` [MMV228911], the “Relative Bioluminescence (%)” value under setting [1] worked out at 73.96% and the “Relative Bioluminescence (%)” value under setting [2] stood at 11.53%.
Regarding `OC(c1cc(C(F)(F)F)nc2c(C(F)(F)F)cccc12)C1CCCCN1` (stereo not drawn) [MMV000014, Mefloquine, reference compound], the viability at 2 µM under setting [3] came to 93.4%. For the same compound, the viability at 10 µM under setting [4] came out at 109%.
Consider `CC1CS(=O)(=O)CCN1/N=C/c1ccc([N+](=O)[O-])o1` (stereo not drawn) [MMV001499, Nifurtimox, reference compound], for which, where the note is “Leishmania mexicana, 72 h”, the viability at 2 µM stood at 7.65% and the viability at 10 µM was -2.17%.
For the compound `CC(C)C(NC(=O)Cc1cccc2ccccc12)C(=O)Nc1cccc(C#N)c1` (stereo not drawn) [MMV020591], the “Relative Bioluminescence (%)” value under setting [1] is 87.56% and the “Relative Bioluminescence (%)” value under setting [2] is on record as 94.51%.
`CS(=O)(=O)Cc1nc2ccccc2oc1=O` [MMV553002]: the “Relative Bioluminescence (%)” value under setting [1] is given as 72.57% and the “Relative Bioluminescence (%)” value under setting [2] is reported as 58.91%.
The matching figures for `Cc1ccc2oc(-c3cc(NC(=O)Cc4ccccc4)ccc3Cl)nc2c1` [MMV676509]: 92.05% and 59.65%.
Take `COc1ccc(Cl)cc1NC(=O)CN(C)C(=O)c1cnn(-c2ccccc2)n1` [MMV020710]: the “Relative Bioluminescence (%)” value was determined as 102.08% under setting [1] and 128.98% under setting [2].
The matching figures for `O=C(Nc1ccccc1)c1ccc(-c2cc3ccncc3cc2OC2CCNCC2)s1` [MMV024035]: 86.60% and 79.61%.
Consider `COc1ccc(-c2onc(C(F)(F)F)c2-c2ccc(Cl)cc2)c(O)c1` [MMV688766], for which the “Relative Bioluminescence (%)” value under setting [1] worked out at 82.40% and the “Relative Bioluminescence (%)” value under setting [2] is given as -2.36%.
`CCCn1c(NC(=O)c2ccc3ccccc3n2)nc2ccccc21` [MMV1030799]: the “Relative Bioluminescence (%)” value is 37.62% under setting [1] and -5.56% under setting [2].
As for `Cc1[nH]c2ccccc2c1C(c1cccs1)N1CCN(C)CC1` (stereo not drawn) [MMV688768], the “Relative Bioluminescence (%)” value is 75.96% under setting [1] and -1.33% under setting [2].
Regarding `CCc1ccc(S(=O)(=O)Nc2cc(CN3CCN(CCC(C)C)CC3)ccc2C)cc1` [MMV688124], the “Relative Bioluminescence (%)” value under setting [1] is reported as 85.13% and the “Relative Bioluminescence (%)” value under setting [2] was 56.21%.
For `Cc1cc(OCC(=O)Nc2ccc(C(C)C)cc2)n(C)c(=O)c1C#N` [MMV1198433], the “Relative Bioluminescence (%)” value runs as follows: under setting [1], 82.52%; under setting [2], 91.16%.
Consider `CNC(=O)c1nn(C)c2c1C(C)(C)Cc1cnc(Nc3ccc(N4CCN(C)CC4)cc3)nc1-2` [MMV676602], for which the “Relative Bioluminescence (%)” value under setting [1] came out at 91.95% and the “Relative Bioluminescence (%)” value under setting [2] came out at 77.62%.
For the compound `CNC(=O)c1cc(S(=O)(=O)N2CCN(c3ccccn3)CC2)cs1` [MMV020136], the “Relative Bioluminescence (%)” value under setting [1] is 108.03% and the “Relative Bioluminescence (%)” value under setting [2] was found to be 122.06%.
`COc1cc(Br)cc2cc(C(=O)Nc3cccc(C(F)(F)F)c3)c(=O)oc12` [MMV688891]: the “Relative Bioluminescence (%)” value by setting is: under setting [1], 75.74%; under setting [2], 64.36%.
In the case of `NCCC[C@](N)(C(=O)O)C(F)F` [MMV001625, α-Difluoromethylornithine, reference compound], the “Relative Bioluminescence (%)” value under setting [1] is listed as 69.72% and the “Relative Bioluminescence (%)” value under setting [2] was 81.23%.
As to `COc1ccc(-c2cnc3cnc(-c4cccc(OC(C)C)c4)cn23)cc1` [MMV688270], the “Relative Bioluminescence (%)” value by setting is: under setting [1], 58.63%; under setting [2], 51.88%.
For `Clc1ccc(Cl)c(CO[C@H]2CCCC[C@@H]2n2ccnc2)c1` [MMV676048], the “Relative Bioluminescence (%)” value reads like this: under setting [1], 104.27%; under setting [2], 53.90%.
`CCCNC(=O)N1CCC2(CC1)CC(=O)c1cc(C)ccc1O2` [MMV085230]: the “Relative Bioluminescence (%)” value under setting [1] worked out at 100.02% and the “Relative Bioluminescence (%)” value under setting [2] was determined as 105.91%.
Take `Brc1c(-c2ccc3c(c2)OCO3)nc2ncccn12` [MMV676377]: the “Relative Bioluminescence (%)” value came out at 78.14% under setting [1] and 74.59% under setting [2].
Consider `O=C(NC1CCCCC1)N1CCN(Cc2ccc3c(c2)OCO3)CC1` [MMV676444], for which the “Relative Bioluminescence (%)” value under setting [1] is 89.21% and the “Relative Bioluminescence (%)” value under setting [2] is given as 81.76%.
